Numbers after ± are expanded uncertainties.
Tests used:
[1] = refractive index (Na D-line) (dimensionless); xn = mol fraction of the nth substance listed; conditions: 101 kPa, Liquid, Standard Abbe refractometry
[2] = xn = mol fraction of the nth substance listed; conditions: 101 kPa, Liquid; for viscosity: Capillary tube (Ostwald / Ubbelohde) method; for mass density: Vibrating tube method

CC1CCC(C)C(C)C1 (stereo not given) [1,2,4-trimethylcyclohexane] + C1C[C@@H]2[C@H]3CC[C@H](C3)[C@@H]2C1
Conditions | mass density, [2] [kg/m3] | refractive index, [1] | viscosity, [2] [mPa·s]
293.15 K, x2 = 0 | 790.8 ± 0.39 | 1.4331 ± 0.0011 | 0.886 ± 0.012
293.15 K, x2 = 0.1 | 804.62 ± 0.37 | 1.4381 ± 0.0011 | 0.986 ± 0.012
293.15 K, x2 = 0.1996 | 818.49 ± 0.34 | 1.4436 ± 0.0011 | 1.101 ± 0.012
293.15 K, x2 = 0.3002 | 832.73 ± 0.31 | 1.449 ± 0.0011 | 1.23 ± 0.013
293.15 K, x2 = 0.4009 | 847.13 ± 0.28 | 1.4545 ± 0.0011 | 1.381 ± 0.014
293.15 K, x2 = 0.5001 | 861.44 ± 0.25 | 1.4597 ± 0.0011 | 1.562 ± 0.014
293.15 K, x2 = 0.5992 | 875.89 ± 0.23 | 1.4651 ± 0.0011 | 1.759 ± 0.015
293.15 K, x2 = 0.6998 | 890.7 ± 0.2 | 1.4709 ± 0.0011 | 2.008 ± 0.016
293.15 K, x2 = 0.7997 | 905.51 ± 0.18 | 1.476 ± 0.0011 | 2.277 ± 0.017
293.15 K, x2 = 0.9001 | 920.61 ± 0.17 | 1.4818 ± 0.001 | 2.609 ± 0.018
298.15 K, x2 = 0 | 786.92 ± 0.39 | – | 0.827 ± 0.011
298.15 K, x2 = 0.1 | 800.71 ± 0.36 | – | 0.917 ± 0.012
298.15 K, x2 = 0.1996 | 814.61 ± 0.34 | – | 1.021 ± 0.012
298.15 K, x2 = 0.3002 | 828.84 ± 0.31 | – | 1.137 ± 0.012
298.15 K, x2 = 0.4009 | 843.21 ± 0.28 | – | 1.273 ± 0.013
298.15 K, x2 = 0.5001 | 857.51 ± 0.25 | – | 1.436 ± 0.013
298.15 K, x2 = 0.5992 | 871.98 ± 0.23 | – | 1.613 ± 0.014
298.15 K, x2 = 0.6998 | 886.77 ± 0.21 | – | 1.837 ± 0.015
298.15 K, x2 = 0.7997 | 901.61 ± 0.19 | – | 2.076 ± 0.016
298.15 K, x2 = 0.9001 | 916.71 ± 0.17 | – | 2.371 ± 0.017
303.15 K, x2 = 0 | 783.03 ± 0.39 | 1.4285 ± 0.0011 | 0.774 ± 0.011
303.15 K, x2 = 0.1 | 796.8 ± 0.36 | 1.4339 ± 0.0011 | 0.856 ± 0.011
303.15 K, x2 = 0.1996 | 810.7 ± 0.33 | 1.4392 ± 0.0011 | 0.95 ± 0.012
303.15 K, x2 = 0.3002 | 824.93 ± 0.31 | 1.4442 ± 0.0011 | 1.056 ± 0.012
303.15 K, x2 = 0.4009 | 839.3 ± 0.28 | 1.4499 ± 0.0011 | 1.179 ± 0.012
303.15 K, x2 = 0.5001 | 853.59 ± 0.25 | 1.4554 ± 0.0011 | 1.326 ± 0.013
303.15 K, x2 = 0.5992 | 868.06 ± 0.23 | 1.4608 ± 0.0011 | 1.486 ± 0.013
303.15 K, x2 = 0.6998 | 882.85 ± 0.21 | 1.4661 ± 0.0011 | 1.687 ± 0.014
303.15 K, x2 = 0.7997 | 897.7 ± 0.19 | 1.4718 ± 0.0011 | 1.901 ± 0.015
303.15 K, x2 = 0.9001 | 912.81 ± 0.17 | 1.4775 ± 0.001 | 2.165 ± 0.016
308.15 K, x2 = 0 | 779.13 ± 0.39 | – | 0.727 ± 0.011
308.15 K, x2 = 0.1 | 792.9 ± 0.36 | – | 0.802 ± 0.011
308.15 K, x2 = 0.1996 | 806.79 ± 0.33 | – | 0.888 ± 0.011
308.15 K, x2 = 0.3002 | 821.01 ± 0.31 | – | 0.984 ± 0.011
308.15 K, x2 = 0.4009 | 835.38 ± 0.28 | – | 1.096 ± 0.012
308.15 K, x2 = 0.5001 | 849.67 ± 0.25 | – | 1.23 ± 0.012
308.15 K, x2 = 0.5992 | 864.13 ± 0.23 | – | 1.374 ± 0.013
308.15 K, x2 = 0.6998 | 878.93 ± 0.21 | – | 1.556 ± 0.013
308.15 K, x2 = 0.7997 | 893.78 ± 0.19 | – | 1.749 ± 0.014
308.15 K, x2 = 0.9001 | 908.89 ± 0.17 | – | 1.985 ± 0.015
313.15 K, x2 = 0 | 775.23 ± 0.39 | 1.424 ± 0.0011 | 0.686 ± 0.01
313.15 K, x2 = 0.1 | 788.98 ± 0.36 | 1.429 ± 0.0011 | 0.753 ± 0.011
313.15 K, x2 = 0.1996 | 802.87 ± 0.33 | 1.4346 ± 0.0011 | 0.832 ± 0.011
313.15 K, x2 = 0.3002 | 817.09 ± 0.3 | 1.44 ± 0.0011 | 0.92 ± 0.011
313.15 K, x2 = 0.4009 | 831.45 ± 0.28 | 1.4452 ± 0.0011 | 1.022 ± 0.011
313.15 K, x2 = 0.5001 | 845.74 ± 0.25 | 1.4508 ± 0.0011 | 1.144 ± 0.012
313.15 K, x2 = 0.5992 | 860.2 ± 0.23 | 1.4561 ± 0.0011 | 1.275 ± 0.012
313.15 K, x2 = 0.6998 | 875.01 ± 0.21 | 1.4618 ± 0.0011 | 1.44 ± 0.013
313.15 K, x2 = 0.7997 | 889.85 ± 0.19 | 1.4676 ± 0.0011 | 1.615 ± 0.013
313.15 K, x2 = 0.9001 | 904.97 ± 0.17 | 1.4731 ± 0.001 | 1.828 ± 0.014
318.15 K, x2 = 0 | 771.32 ± 0.39 | – | 0.648 ± 0.01
318.15 K, x2 = 0.1 | 785.06 ± 0.36 | – | 0.71 ± 0.01
318.15 K, x2 = 0.1996 | 798.94 ± 0.33 | – | 0.782 ± 0.011
318.15 K, x2 = 0.3002 | 813.16 ± 0.3 | – | 0.862 ± 0.011
318.15 K, x2 = 0.4009 | 827.52 ± 0.28 | – | 0.956 ± 0.011
318.15 K, x2 = 0.5001 | 841.8 ± 0.25 | – | 1.068 ± 0.011
318.15 K, x2 = 0.5992 | 856.27 ± 0.23 | – | 1.187 ± 0.012
318.15 K, x2 = 0.6998 | 871.07 ± 0.21 | – | 1.337 ± 0.012
318.15 K, x2 = 0.7997 | 885.92 ± 0.19 | – | 1.496 ± 0.013
318.15 K, x2 = 0.9001 | 901.04 ± 0.17 | – | 1.688 ± 0.013
